“And” between values parts separate entries of the source, which are not always exact repeats. Identical values can stand only once. Counter-ions that a name gives are not always drawn. Like-named read-outs stand apart in the source and are kept apart here.
Legend:
DNMT1 = DNMT1 (Homo sapiens, UniProt P26358); experiment: DNMT1 biochemical activity, breaklight assay and/or SPA assay
[1] = test system: erythroid progenitor cells (EPCs); experiment: Fetal hemoglobin (HbF) ELISA in day 7 erythroid progenitor cells; format: cell-based, human; details: Homo sapiens, Erythroid progenitor cell, HbF ELISA, day 7 EPCs, 5 days; read-out: EPC ELISA (pEC50 category) (converted);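 further: for fetal hemoglobin induction normalized to vehicle-treated cells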
In short: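 HbF induction was read by anti-HbF sandwich ELISA (HRP/TMB, OD450) on lysates and normalized to vehicle-treated cells. Cells were day 7 erythroid progenitors derived from human bone marrow CD34+ cells, seeded at 1,000/well with 3 U/mL rhEPO. Compound was given for 5 days at 37 °C at final concentrations […].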

[2] = binned activity in either the breaklight or the SPA assay
[3] = binned activity in either the breaklight or the SPA assay, read-out: DNMT1 BioChemical (pIC50 category) (converted)
[4] = breaklight assay and/or SPA assay, repeated experimental runs, read-out: average pIC50 against DNMT1 (converted)

DNMT1, sequence (P26358 whole entry, looked up): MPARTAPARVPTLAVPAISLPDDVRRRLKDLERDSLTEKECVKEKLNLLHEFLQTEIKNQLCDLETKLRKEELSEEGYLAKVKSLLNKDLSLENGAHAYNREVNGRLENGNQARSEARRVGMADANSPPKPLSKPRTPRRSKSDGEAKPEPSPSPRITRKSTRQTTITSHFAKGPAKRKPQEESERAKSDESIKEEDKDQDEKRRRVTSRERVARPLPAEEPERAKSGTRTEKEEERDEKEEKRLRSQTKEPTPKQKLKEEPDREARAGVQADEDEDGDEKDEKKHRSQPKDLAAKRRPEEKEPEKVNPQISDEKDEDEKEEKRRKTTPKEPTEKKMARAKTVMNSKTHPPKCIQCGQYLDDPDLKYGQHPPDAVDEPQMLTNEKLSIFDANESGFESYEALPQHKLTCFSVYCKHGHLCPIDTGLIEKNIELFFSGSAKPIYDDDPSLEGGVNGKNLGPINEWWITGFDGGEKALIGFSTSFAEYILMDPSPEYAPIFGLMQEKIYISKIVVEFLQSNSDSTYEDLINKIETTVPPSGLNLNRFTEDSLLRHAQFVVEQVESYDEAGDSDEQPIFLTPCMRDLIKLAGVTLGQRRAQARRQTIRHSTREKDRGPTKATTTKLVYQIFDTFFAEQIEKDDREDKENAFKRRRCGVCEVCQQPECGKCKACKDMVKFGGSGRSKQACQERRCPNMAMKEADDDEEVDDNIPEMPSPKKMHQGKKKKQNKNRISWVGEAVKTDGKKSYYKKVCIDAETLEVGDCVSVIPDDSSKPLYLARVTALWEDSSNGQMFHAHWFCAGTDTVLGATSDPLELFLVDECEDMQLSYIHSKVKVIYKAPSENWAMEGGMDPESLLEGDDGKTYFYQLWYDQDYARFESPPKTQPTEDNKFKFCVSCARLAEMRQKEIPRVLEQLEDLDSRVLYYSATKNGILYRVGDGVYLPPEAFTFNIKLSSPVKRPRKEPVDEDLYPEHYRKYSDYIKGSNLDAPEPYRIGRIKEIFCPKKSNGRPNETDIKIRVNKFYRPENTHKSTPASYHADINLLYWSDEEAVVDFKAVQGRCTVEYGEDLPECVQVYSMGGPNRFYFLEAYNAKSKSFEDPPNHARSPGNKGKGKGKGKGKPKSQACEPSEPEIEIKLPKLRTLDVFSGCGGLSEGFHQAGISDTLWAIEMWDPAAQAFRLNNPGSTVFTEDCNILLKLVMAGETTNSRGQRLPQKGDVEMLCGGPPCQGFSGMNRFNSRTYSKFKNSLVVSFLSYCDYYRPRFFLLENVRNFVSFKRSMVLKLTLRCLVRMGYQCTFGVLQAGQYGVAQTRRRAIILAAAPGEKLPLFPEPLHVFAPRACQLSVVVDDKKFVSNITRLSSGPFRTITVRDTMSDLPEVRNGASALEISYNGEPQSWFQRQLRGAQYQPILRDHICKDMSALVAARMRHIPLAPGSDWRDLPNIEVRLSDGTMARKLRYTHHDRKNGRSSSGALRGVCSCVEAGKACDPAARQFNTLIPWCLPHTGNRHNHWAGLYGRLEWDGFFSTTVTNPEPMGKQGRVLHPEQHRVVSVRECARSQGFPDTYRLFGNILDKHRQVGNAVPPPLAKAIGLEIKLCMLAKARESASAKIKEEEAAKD

Question: Which results are given for `CCc1c(C#N)c(SC(C(N)=O)c2ccccc2)nc(N(C)CCOCCN)c1C#N` (stereo not shown) [Example 628, 2-((6-((2-(2-aminoethoxy)ethyl)(methyl)amino)-3,5-dicyano-4-ethylpyridin-2-yl)thio)-2-phenylacetamide]?
Answer: DNMT1 BioChemical (pIC50 category) (DNMT1; [2]): D (Category D: ≥6.5); EC50 [1]: < 0.316 µM

Question: How did the “DNMT1 BioChemical (pIC50 category)” value (DNMT1; [2]) turn out when `CCc1c(C#N)c(SC(C(N)=O)c2ccccc2)nc(N2Cc3cn[nH]c3C2)c1C#N` (stereo not shown) [Example 236, 2-((3,5-Dicyano-4-ethyl-6-(pyrrolo[3,4-c]pyrazol-5(1H,4H,6H)-yl)pyridin-2-yl)thio)-2-phenylacetamide] was run?
Answer: D (Category D: ≥6.5)

Question: What about the EC50 [1] of the same compound?
Answer: > 31.6 µM

Question: Which “DNMT1 BioChemical (pIC50 category)” value (DNMT1; [2]) does the source give for `CCNCCN(C)c1nc(SC(C(N)=O)c2ccccc2)c(C#N)c(CC)c1C#N` (stereo not shown) [Example 468, 2-(3,5-dicyano-4-ethyl-6-((2-(ethylamino)ethyl)(methyl)amino)pyridin-2-ylthio)-2-phenylacetamide] here?
Answer: D (Category D: ≥6.5)

Question: What about the EC50 [1] of the same compound?
Answer: < 0.316 µM

Question: `CCc1c(C#N)c(S[C@H](C(N)=O)c2ccccc2)nc(N2CCC(C)(N)CC2)c1C#N` (single isomer, unassigned) [Example 608, 2-((6-(4-amino-4-methylpiperidin-1-yl)-3,5-dicyano-4-ethylpyridin-2-yl)thio)-2-phenylacetamide] was tested. Which “DNMT1 BioChemical (pIC50 category)” value (DNMT1; [2]) did it give?
Answer: D (Category D: ≥6.5)

Question: And the EC50 [1]?
Answer: < 0.316 µM

Question: `CCc1c(C#N)c(SCc2ccc(N3CCCS3(=O)=O)cc2)nc(N2CCC(NCC(C)(C)C)CC2)c1C#N` [Example 603, 2-((4-(1,1-dioxidoisothiazolidin-2-yl)benzyl)thio)-4-ethyl-6-(4-(neopentylamino)piperidin-1-yl)pyridine-3,5-dicarbonitrile] was tested. Which “DNMT1 BioChemical (pIC50 category)” value (DNMT1; [2]) did it give?
Answer: D (Category D: ≥6.5)

Question: What about the EC50 [1] of the same compound?
Answer: > 31.6 µM

Question: With `CCc1c(C#N)c(SC(C(N)=O)c2ccccc2)nc(N2CCC(O)(C(N)=O)CC2)c1C#N` (stereo not shown) [Example 258, 1-(6-((2-Amino-2-oxo-1-phenylethyl)thio)-3,5-dicyano-4-ethylpyridin-2-yl)-4-hydroxy piperidine-4-carboxamide] as the compound, how does the IC50 (DNMT1; [3]) read?
Answer: 0.316 to 1 µM

Question: What about the EC50 [1] of the same compound?
Answer: 1 to 31.6 µM

Question: Which results are given for `CCc1c(C#N)c(SC(C(N)=O)c2ccccc2)nc(N2CCC(NC)C(F)C2)c1C#N` (stereo not shown) [Example 507, 2((3,5-dicyano-4-ethyl-6-(3-fluoro-4-(methylamino)piperidin-1-yl)pyridin-2-yl)thio)-2-phenylacetamide]?
Answer: DNMT1 BioChemical (pIC50 category) (DNMT1; [2]): D (Category D: ≥6.5); EC50 [1]: < 0.316 µM

Question: With `CCc1c(C#N)c(SC(C(N)=O)c2ccccc2)nc(N2CCO[C@@H](CNC(=O)C(C)(C)N)C2)c1C#N` (stereo partly drawn) [Example 575, 2-amino-N-(((2S)-4-(6-((2-amino-2-oxo-1-phenylethyl)thio)-3,5-dicyano-4-ethylpyridin-2-yl)morpholin-2-yl)methyl)-2-methylpropanamide] as the compound, how does the “DNMT1 BioChemical (pIC50 category)” value (DNMT1; [2]) read?
Answer: D (Category D: ≥6.5)

Question: What about the EC50 [1] of the same compound?
Answer: < 0.316 µM

Question: Which IC50 (DNMT1; [3]) does the source give for `CCc1c(C#N)c(SC(C(N)=O)c2ccccc2)nc(N2CCN(C(=O)c3ccc(Br)cc3)CC2)c1C#N` (stereo not shown) [Example 310, 2-((6-(4-(4-Bromobenzoyl)piperazin-1-yl)-3,5-dicyano-4-ethylpyridin-2-yl)thio)-2-phenylacetamide] here?
Answer: 1 to 31.6 µM

Question: And the IC50 (DNMT1; [4])?
Answer: ≥ 1 µM and 2 µM

Question: And the EC50 [1]?
Answer: < 0.316 µM

Question: For `CCc1c(C#N)c(SC(C(N)=O)c2ccccc2)nc(N2CCC(C)(NCC(F)F)CC2)c1C#N` (stereo not shown) [Example 232], which IC50 (DNMT1; [3]) is on record?
Answer: 0.316 to 1 µM

Question: What about the EC50 [1] of the same compound?
Answer: 0.316 to 1 µM

Question: How did the “DNMT1 BioChemical (pIC50 category)” value (DNMT1; [2]) turn out when `CN(CCCN)c1nc(SC(C(N)=O)c2ccccc2)c(C#N)c(C2CC2)c1C#N` (stereo not shown) [Example 391, 2-((6-((3-Aminopropyl) (methyl)amino-3,5-dicyano-4-cyclopropylpyridin-2-yl)thio-2-phenylacetamide, Hydrochloride] was run?
Answer: D (Category D: ≥6.5)

Question: And the EC50 [1]?
Answer: 1 to 31.6 µM

Question: For `CN(C)C1CCN(c2nc(SC(C(N)=O)c3ccccc3)c(C#N)c(C3CC3)c2C#N)CC1` (stereo not shown) [Example 29, 2-((3,5-dicyano-4-cyclopropyl-6-(4-(dimethylamino)piperidin-1-yl)pyridin-2-yl)thio)-2-phenylacetamide], which “DNMT1 BioChemical (pIC50 category)” value (DNMT1; [2]) is on record?
Answer: D (Category D: ≥6.5)

Question: And the EC50 [1]?
Answer: < 0.316 µM

Question: How did the “DNMT1 BioChemical (pIC50 category)” value (DNMT1; [2]) turn out when `CCc1c(C#N)c(S[C@H](C(N)=O)c2ccccc2)nc(N2CC(N)C2)c1C#N` (stereo in doubt) [Example 635, 2-((6-(3-aminoazetidin-1-yl)-3,5-dicyano-4-ethylpyridin-2-yl)thio)-2-phenylacetamide] was run?
Answer: D (Category D: ≥6.5)

Question: What about the EC50 [1] of the same compound?
Answer: 0.316 to 1 µM

Question: With `CCc1c(C#N)c(SC(C(N)=O)c2ccccc2)nc(N(C)CCNCCF)c1C#N` (stereo not shown) [Example 495, 2-((3,5-dicyano-4-ethyl-6-((2-((2-fluoroethyl)amino)ethyl)(methyl)amino)pyridin-2-yl)thio)-2-phenylacetamide] as the compound, how does the “DNMT1 BioChemical (pIC50 category)” value (DNMT1; [2]) read?
Answer: D (Category D: ≥6.5)

Question: What about the EC50 [1] of the same compound?
Answer: 1 to 31.6 µM

Question: How did the “DNMT1 BioChemical (pIC50 category)” value (DNMT1; [2]) turn out when `CCc1c(C#N)c(SC(C(N)=O)c2ccccc2)nc(N(C)CCCN)c1C#N` (stereo not shown) [Example 670, 2-((6-((3-aminopropyl)(methyl)amino)-3,5-dicyano-4-ethylpyridin-2-yl)thio)-2-phenylacetamide hydrochloride] was run?
Answer: D (Category D: ≥6.5)

Question: And the EC50 [1]?
Answer: < 0.316 µM

Question: For `CCc1c(C#N)c(SC(C(N)=O)c2ccccc2)nc(N2CCC(OC(=O)[C@@H](N)C(C)C)CC2)c1C#N` (stereo partly drawn) [Example 274, 1-(6-((2-Amino-2-oxo-1-phenylethyl)thio)-3,5-dicyano-4-ethylpyridin-2-yl)piperidin-4-yl (2S)-2-amino-3-methylbutanoate], which “DNMT1 BioChemical (pIC50 category)” value (DNMT1; [2]) is on record?
Answer: D (Category D: ≥6.5)

Question: What about the EC50 [1] of the same compound?
Answer: < 0.316 µM

Question: With `CCc1c(C#N)c(SC(C(N)=O)c2ccc(C(N)=O)cc2)nc(N2CCCN(C)CC2)c1C#N` (stereo not shown) [Example 368, 4-(2-Amino-1-((3,5-dicyano-4-ethyl-6-(4-methyl-1,4-diazepan-1-yl)pyridin-2-yl)thio)-2-oxoethyl)benzamide] as the compound, how does the “DNMT1 BioChemical (pIC50 category)” value (DNMT1; [2]) read?
Answer: D (Category D: ≥6.5)

Question: What about the EC50 [1] of the same compound?
Answer: > 31.6 µM

Question: Which “DNMT1 BioChemical (pIC50 category)” value (DNMT1; [2]) does the source give for `CCc1c(C#N)c(SC(C(N)=O)c2ccccc2)nc(N2CCO[C@H](CN(CC)CC)C2)c1C#N` (stereo partly drawn) [Example 578, 2-((3,5-dicyano-6-((R)-2-((diethylamino)methyl)morpholino)-4-ethylpyridin-2-yl)thio)-2-phenylacetamide] here?
Answer: D (Category D: ≥6.5)

Question: What about the EC50 [1] of the same compound?
Answer: < 0.316 µM

Question: Which results are given for `CCc1c(C#N)c(SC(C(N)=O)c2ccccc2)nc(N2CCC(NCC(N)=O)CC2)c1C#N` (stereo not shown) [Example 393, 2-((6-(4-((2-Amino-2-oxoethyl)amino)piperidin-1-yl)-3,5-dicyano-4-ethylpyridin-2-yl)thio)-2-phenylacetamide]?
Answer: DNMT1 BioChemical (pIC50 category) (DNMT1; [2]): D (Category D: ≥6.5); EC50 [1]: 0.316 to 1 µM

Question: What does the source list for `CCc1c(C#N)c(SC(C(N)=O)c2ccc(F)cc2)nc(N2CCC(NC)CC2)c1C#N` (stereo not shown) [Example 526, 2-((3,5-dicyano-4-ethyl-6-(4-(methylamino)piperidin-1-yl)pyridin-2-yl)thio)-2-(4-fluorophenyl)acetamide]?
Answer: IC50 (DNMT1; [3]): < 0.316 µM; EC50 [1]: < 0.316 µM

Question: What does the source list for `CCc1c(C#N)c(S[C@H](C)c2ccc(N(C)S(C)(=O)=O)cc2)nc(N2CCC(N)CC2)c1C#N` (single isomer, unassigned) [Example 681, N-(4-(1-((6-(4-aminopiperidin-1-yl)-3,5-dicyano-4-ethylpyridin-2-yl)thio)ethyl)phenyl)-N-methylmethanesulfonamide]?
Answer: DNMT1 BioChemical (pIC50 category) (DNMT1; [2]): D (Category D: ≥6.5); EC50 [1]: 1 to 31.6 µM

Question: How did the “DNMT1 BioChemical (pIC50 category)” value (DNMT1; [2]) turn out when `CCc1c(C#N)c(SC(C(N)=O)c2ccccc2)nc(N(C)CCN2CCC[C@H]2CO)c1C#N` (stereo partly drawn) [Example 475, 2-((3,5-dicyano-4-ethyl-6-((2-((S)-2-(hydroxymethyl)pyrrolidin-1-yl)ethyl)(methyl)amino)pyridin-2-yl)thio)-2-phenylacetamide] was run?
Answer: D (Category D: ≥6.5)

Question: What about the EC50 [1] of the same compound?
Answer: < 0.316 µM

Question: Which “DNMT1 BioChemical (pIC50 category)” value (DNMT1; [2]) does the source give for `CCc1c(C#N)c(SCc2ccc(N3CCCS3(=O)=O)cc2)nc(N2CCC(N)CC2)c1C#N` [Example 600, 2-(4-aminopiperidin-1-yl)-6-((4-(1,1-dioxidoisothiazolidin-2-yl)benzyl)thio)-4-ethylpyridine-3,5-dicarbonitrile] here?
Answer: D (Category D: ≥6.5)

Question: And the EC50 [1]?
Answer: > 31.6 µM

Question: With `CCc1c(C#N)c(SCc2ccc(CNC(=O)CO)cc2)nc(N(C)CC(N)=O)c1C#N` [Example 371] as the compound, how does the IC50 (DNMT1; [3]) read?
Answer: 0.316 to 1 µM

Question: And the EC50 [1]?
Answer: 1 to 31.6 µM

Question: How did the IC50 (DNMT1; [3]) turn out when `CCc1c(C#N)c(SC(C(N)=O)c2ccccc2)nc(N2CC(OP(=O)(O)O)C2)c1C#N` (stereo not shown) [Example 152, 1-(6-((2-Amino-2-oxo-1-phenylethyl)thio)-3,5-dicyano-4-ethylpyridin-2-yl)azetidin-3-yl dihydrogen phosphate] was run?
Answer: 1 to 31.6 µM

Question: And the EC50 [1]?
Answer: 1 to 31.6 µM

Question: For `CCc1c(C#N)c(SCc2ccc(CNCCO)cc2)nc(N2CCCN(C)CC2)c1C#N` [Example 90, 4-Ethyl-2-((4-(((2-hydroxyethyl)amino)methyl)benzyl)thio)-6-(4-methyl-1,4-diazepan-1-yl)pyridine-3,5-dicarbonitrile], which IC50 (DNMT1; [3]) is on record?
Answer: 0.316 to 1 µM

Question: And the EC50 [1]?
Answer: > 31.6 µM

Question: Which “DNMT1 BioChemical (pIC50 category)” value (DNMT1; [2]) does the source give for `CCc1c(C#N)c(SC(C(N)=O)c2ccccc2)nc(N(C)CC(=O)N2CCNCC2)c1C#N` (stereo not shown) [Example 622, 2-((3,5-dicyano-4-ethyl-6-(methyl(2-oxo-2-(piperazin-1-yl)ethyl)amino)pyridin-2-yl)thio)-2-phenylacetamide] here?
Answer: D (Category D: ≥6.5)

Question: What about the EC50 [1] of the same compound?
Answer: < 0.316 µM

Question: Which results are given for `CCc1c(C#N)c(SC(C(N)=O)c2ccccc2)nc(N2CCC(NC(=O)CO)CC2)c1C#N` (stereo not shown) [Example 286, N-(1-(6-((2-Amino-2-oxo-1-phenylethyl)thio)-3,5-dicyano-4-ethylpyridin-2-yl)piperidin-4-yl)-2-hydroxyacetamide]?
Answer: DNMT1 BioChemical (pIC50 category) (DNMT1; [2]): D (Category D: ≥6.5); IC50 (DNMT1; [4]): 0.316 to 1 µM and 0.316 µM; EC50 [1]: 1 to 31.6 µM
